# Molecular target: T1, Cytochrome P450 1A2 (Homo sapiens, UniProt P05177)
# T1 sequence (P05177 whole entry): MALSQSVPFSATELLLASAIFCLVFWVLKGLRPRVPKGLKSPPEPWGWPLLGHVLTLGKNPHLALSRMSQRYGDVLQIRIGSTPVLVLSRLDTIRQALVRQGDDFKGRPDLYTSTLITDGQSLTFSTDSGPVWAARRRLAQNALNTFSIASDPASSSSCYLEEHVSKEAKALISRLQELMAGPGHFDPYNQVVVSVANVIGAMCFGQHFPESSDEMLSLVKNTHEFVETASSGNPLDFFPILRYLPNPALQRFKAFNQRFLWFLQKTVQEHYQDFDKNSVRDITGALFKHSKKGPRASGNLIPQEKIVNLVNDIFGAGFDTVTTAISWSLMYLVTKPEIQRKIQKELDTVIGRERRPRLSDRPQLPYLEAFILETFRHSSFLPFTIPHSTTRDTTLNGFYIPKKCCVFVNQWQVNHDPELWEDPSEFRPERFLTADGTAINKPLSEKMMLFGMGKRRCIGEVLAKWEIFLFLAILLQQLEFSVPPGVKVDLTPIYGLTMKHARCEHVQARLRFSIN
# Test: not given
# Also: in other assays of this panel Not Active means under 50% inhibition at 10 µM.
row,Compound,IC50
1,c1ccc2c(c1)cc1ccc3cccc4ccc2c1c34,0.04 µM
2,Cc1[nH]cnc1CN1CCc2c(c3ccccc3n2C)C1=O [ALOSETRON],0.605 µM

# Molecular target: T2, Androgen receptor (Rattus norvegicus, UniProt P15207)
# T2 sequence (P15207 whole entry): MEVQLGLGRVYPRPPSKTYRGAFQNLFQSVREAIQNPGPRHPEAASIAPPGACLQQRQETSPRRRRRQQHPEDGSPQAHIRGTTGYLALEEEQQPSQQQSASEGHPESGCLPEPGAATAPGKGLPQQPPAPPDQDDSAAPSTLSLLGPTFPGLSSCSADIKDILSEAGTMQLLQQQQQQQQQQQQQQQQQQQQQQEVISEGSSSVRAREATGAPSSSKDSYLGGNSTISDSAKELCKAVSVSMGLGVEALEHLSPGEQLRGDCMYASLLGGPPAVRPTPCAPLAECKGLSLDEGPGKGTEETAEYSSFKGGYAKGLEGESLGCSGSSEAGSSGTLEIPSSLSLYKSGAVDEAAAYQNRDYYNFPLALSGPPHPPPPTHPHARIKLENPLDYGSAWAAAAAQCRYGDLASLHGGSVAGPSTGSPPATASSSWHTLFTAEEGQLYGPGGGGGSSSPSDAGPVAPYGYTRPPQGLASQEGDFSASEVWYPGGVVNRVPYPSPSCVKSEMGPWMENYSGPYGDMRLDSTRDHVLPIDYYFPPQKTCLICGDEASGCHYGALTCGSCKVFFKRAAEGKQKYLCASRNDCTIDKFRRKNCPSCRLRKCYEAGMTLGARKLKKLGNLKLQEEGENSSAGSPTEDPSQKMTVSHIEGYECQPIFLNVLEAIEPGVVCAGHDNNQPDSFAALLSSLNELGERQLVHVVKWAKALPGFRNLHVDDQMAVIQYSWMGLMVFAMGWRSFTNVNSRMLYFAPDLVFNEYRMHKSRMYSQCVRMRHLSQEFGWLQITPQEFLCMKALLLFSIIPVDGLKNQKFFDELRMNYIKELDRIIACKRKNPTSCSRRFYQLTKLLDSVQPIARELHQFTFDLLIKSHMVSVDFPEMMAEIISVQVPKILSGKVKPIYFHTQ
# Test: not given
Compound,IC50,Ki
COc1ccc2cc(CC(=O)O)ccc2c1,Not Active,–
CC(C)NC[C@H](O)COc1cccc2[nH]ccc12,Not Active,–
C=C1C(=O)O[C@@H]2C3O[C@]3(C)CC/C=C(\C)CC[C@@H]12 (some centres undefined),Not Active,–
COc1ccc2c(c1)c(CC(=O)OCC(=O)O)c(C)n2C(=O)c1ccc(Cl)cc1 [ACEMETACIN],Not Active,–
O=c1cc(-c2ccccc2)oc2c1ccc1ccccc12 [ALPHA-NAPHTHOFLAVONE],Not Active,–
NCC[C@H](O)C(=O)N[C@@H]1C[C@H](N)[C@@H](O[C@H]2O[C@H](CN)[C@@H](O)[C@H](O)[C@H]2O)[C@H](O)[C@H]1O[C@H]1O[C@H](CO)[C@@H](O)[C@H](N)[C@H]1O [AMIKACIN],Not Active,–
CC1(C)S[C@@H]2[C@H](NC(=O)[C@H](N)c3ccc(O)cc3)C(=O)N2[C@H]1C(=O)O [AMOXICILLIN],Not Active,–
N#C[C@H](O[C@@H]1O[C@H](CO[C@@H]2O[C@H](CO)[C@@H](O)[C@H](O)[C@H]2O)[C@@H](O)[C@H](O)[C@H]1O)c1ccccc1 [AMYGDALIN],Not Active,–
C=C1[C@@H]2CCC3[C@@](CC[C@@H]4[C@H](C(=O)O)C[C@@H](O[C@@H]5O[C@H](CO)[C@@H](OS(=O)(=O)[O-])[C@H](OS(=O)(=O)[O-])[C@H]5OC(=O)CC(C)C)C[C@@]34C)(C2)[C@@H]1O.[K+].[K+] (some centres undefined) [ATRACTYLOSIDE],Not Active,–
OCc1ccccc1 [BENZYL ALCOHOL],Not Active,–
Brc1ccccc1 [BROMOBENZENE],Not Active,–
CC[C@@]1(O)C(=O)OCc2c1cc1n(c2=O)Cc2cc3ccccc3nc2-1 [CAMPTOTHECIN],Not Active,–
COCc1c(C(C)C)nc(C(C)C)c(/C=C/[C@@H](O)C[C@@H](O)CC(=O)O)c1-c1ccc(F)cc1 [CERIVASTATIN],Not Active,–
CCc1cccc2c3c([nH]c12)C(CC)(CC(=O)O)OCC3 (centres undefined) [ETODOLAC],Not Active,–
CN(C)[C@@H]1C(O)=C(C(N)=O)C(=O)[C@@]2(O)C(O)=C3C(=O)c4c(O)cccc4[C@@](C)(O)[C@H]3[C@H](O)[C@@H]12 [OXYTETRACYCLINE],Not Active,–
Fc1ccc([C@@H]2CCNC[C@H]2COc2ccc3c(c2)OCO3)cc1 [PAROXETINE],Not Active,–
C=C(C)[C@@H]1[C@H]2OC(=O)[C@@H]1[C@]1(O)C[C@H]3O[C@]34C(=O)O[C@H]2[C@]14C [PICROTOXININ],Not Active,–
CARBOPLATIN,Not Active,Not Active
CISPLATIN,Not Active,Not Active
GOLD SODIUM THIOMALATE,Not Active,Not Active
OXALIPLATIN,Not Active,Not Active

# Molecular target: Voltage-gated inwardly rectifying potassium channel KCNH2 (Homo sapiens, UniProt Q12809)
# Sequence (Q12809 whole entry): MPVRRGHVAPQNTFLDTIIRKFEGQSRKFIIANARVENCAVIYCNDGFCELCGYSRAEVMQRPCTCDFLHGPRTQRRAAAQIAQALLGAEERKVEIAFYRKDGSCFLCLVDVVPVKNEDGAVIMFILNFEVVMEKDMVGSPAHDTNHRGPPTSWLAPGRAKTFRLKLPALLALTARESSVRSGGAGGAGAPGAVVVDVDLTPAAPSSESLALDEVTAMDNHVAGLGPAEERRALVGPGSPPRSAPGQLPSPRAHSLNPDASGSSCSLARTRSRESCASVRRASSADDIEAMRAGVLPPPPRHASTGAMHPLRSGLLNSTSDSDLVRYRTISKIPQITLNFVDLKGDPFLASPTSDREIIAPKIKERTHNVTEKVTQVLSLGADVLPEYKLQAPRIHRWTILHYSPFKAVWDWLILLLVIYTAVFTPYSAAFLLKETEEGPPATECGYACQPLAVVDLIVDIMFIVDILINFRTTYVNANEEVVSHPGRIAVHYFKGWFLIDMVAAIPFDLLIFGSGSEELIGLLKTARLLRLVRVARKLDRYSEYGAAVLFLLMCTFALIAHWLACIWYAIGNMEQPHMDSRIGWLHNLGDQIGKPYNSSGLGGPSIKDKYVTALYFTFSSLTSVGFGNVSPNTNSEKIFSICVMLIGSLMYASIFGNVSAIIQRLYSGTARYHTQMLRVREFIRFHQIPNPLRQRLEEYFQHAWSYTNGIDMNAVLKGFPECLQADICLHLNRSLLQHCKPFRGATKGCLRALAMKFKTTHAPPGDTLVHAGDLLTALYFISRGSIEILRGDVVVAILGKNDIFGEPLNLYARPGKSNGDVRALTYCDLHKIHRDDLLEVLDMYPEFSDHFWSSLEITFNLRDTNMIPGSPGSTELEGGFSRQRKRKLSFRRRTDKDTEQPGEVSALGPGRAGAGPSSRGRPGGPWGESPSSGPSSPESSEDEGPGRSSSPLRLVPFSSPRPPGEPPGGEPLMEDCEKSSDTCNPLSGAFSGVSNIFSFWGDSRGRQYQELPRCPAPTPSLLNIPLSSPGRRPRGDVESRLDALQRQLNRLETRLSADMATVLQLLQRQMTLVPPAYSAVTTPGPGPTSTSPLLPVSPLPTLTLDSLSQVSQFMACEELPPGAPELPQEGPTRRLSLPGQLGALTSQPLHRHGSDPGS
# Test: not given
Compound,IC50,Ki
Cc1c(-c2ccccc2)oc2c(C(=O)OCCN3CCCCC3)cccc2c1=O [FLAVOXATE],24.1 µM,19.8 µM
COc1ccc(CN(CCN(C)C)c2ccccn2)cc1 [PYRILAMINE],12.6 µM,10.3 µM

# Molecular target: T3, Glucocorticoid receptor (Homo sapiens, UniProt P04150)
# T3 sequence (P04150 whole entry): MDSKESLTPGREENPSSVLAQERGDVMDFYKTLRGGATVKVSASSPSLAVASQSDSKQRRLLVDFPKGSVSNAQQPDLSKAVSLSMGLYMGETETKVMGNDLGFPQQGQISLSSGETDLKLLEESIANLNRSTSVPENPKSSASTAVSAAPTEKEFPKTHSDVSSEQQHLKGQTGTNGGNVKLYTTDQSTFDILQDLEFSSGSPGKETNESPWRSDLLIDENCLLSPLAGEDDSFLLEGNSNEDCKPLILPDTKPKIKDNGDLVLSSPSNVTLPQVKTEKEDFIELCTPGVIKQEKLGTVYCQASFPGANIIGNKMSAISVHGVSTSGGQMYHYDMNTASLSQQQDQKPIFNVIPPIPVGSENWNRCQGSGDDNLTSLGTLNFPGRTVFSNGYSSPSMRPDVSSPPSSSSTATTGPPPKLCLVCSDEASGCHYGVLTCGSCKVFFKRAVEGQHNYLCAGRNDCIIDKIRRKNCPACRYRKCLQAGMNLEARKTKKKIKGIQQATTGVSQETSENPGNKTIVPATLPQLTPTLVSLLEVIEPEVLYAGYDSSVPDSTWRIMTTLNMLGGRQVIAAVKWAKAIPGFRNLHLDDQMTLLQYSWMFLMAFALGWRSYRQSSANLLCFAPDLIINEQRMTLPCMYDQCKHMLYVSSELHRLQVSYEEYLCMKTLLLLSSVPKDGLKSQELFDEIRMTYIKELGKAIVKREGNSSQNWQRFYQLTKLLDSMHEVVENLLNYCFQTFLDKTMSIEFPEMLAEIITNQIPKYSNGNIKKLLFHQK
# Test: biochemical
Compound,IC50,Ki
CC(=O)OCC(=O)[C@@]1(OC(C)=O)[C@@H](C)C[C@H]2[C@@H]3C[C@H](F)C4=CC(=O)C=C[C@]4(C)[C@@]3(F)[C@@H](O)C[C@@]21C [DIFLORASONE DIACETATE],0.0064 µM,0.00291 µM
CC(=O)[C@@]1(O)CC[C@H]2[C@@H]3C[C@H](C)C4=CC(=O)C=C[C@]4(C)[C@@]3(F)[C@@H](O)C[C@@]21C [FLUOROMETHOLONE],0.00347 µM,0.00158 µM

# Molecular target: T4, Estrogen receptor (Homo sapiens, UniProt P03372)
# T4 sequence (P03372 whole entry): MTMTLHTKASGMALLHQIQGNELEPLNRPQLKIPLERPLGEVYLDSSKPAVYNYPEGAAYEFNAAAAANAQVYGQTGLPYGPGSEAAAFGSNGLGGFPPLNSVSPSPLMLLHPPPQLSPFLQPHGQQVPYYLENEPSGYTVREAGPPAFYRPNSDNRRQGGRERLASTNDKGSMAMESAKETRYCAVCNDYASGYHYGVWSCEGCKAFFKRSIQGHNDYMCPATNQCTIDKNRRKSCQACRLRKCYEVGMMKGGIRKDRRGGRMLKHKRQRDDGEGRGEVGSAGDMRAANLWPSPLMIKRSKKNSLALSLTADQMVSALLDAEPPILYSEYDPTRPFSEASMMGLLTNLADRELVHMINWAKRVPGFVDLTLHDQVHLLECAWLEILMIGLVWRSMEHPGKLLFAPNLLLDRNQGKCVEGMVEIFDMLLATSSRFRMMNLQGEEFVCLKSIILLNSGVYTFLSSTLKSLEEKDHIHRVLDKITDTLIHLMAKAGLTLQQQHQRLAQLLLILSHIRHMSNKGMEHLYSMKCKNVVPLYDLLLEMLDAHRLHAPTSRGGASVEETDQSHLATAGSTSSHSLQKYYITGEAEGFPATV
# Test: biochemical
Compound,IC50,Ki
CCCCCCCCCc1ccc(O)cc1 [4-NONYLPHENOL],0.377 µM,0.108 µM

# Molecular target: Cytochrome P450 2C19 (Homo sapiens, UniProt P33261)
# Sequence (P33261 whole entry): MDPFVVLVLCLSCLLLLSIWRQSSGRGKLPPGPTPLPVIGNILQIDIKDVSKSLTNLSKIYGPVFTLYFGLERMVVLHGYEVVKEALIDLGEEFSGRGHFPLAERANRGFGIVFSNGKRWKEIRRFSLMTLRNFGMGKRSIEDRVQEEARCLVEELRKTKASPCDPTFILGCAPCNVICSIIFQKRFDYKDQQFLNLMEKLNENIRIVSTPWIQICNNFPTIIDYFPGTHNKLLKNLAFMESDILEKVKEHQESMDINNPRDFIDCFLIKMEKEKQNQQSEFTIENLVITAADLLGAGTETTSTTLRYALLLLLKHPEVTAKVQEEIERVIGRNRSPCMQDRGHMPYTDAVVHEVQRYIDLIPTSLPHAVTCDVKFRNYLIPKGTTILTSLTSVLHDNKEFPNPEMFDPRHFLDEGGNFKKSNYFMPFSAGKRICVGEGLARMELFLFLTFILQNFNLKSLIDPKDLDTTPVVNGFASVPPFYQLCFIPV
# Test: not given
row,Compound,IC50
1,CC(=O)O[C@]1(C(C)=O)CC[C@H]2[C@@H]3C=C(Cl)C4=CC(=O)CC[C@]4(C)[C@H]3CC[C@@]21C [CHLORMADINONE ACETATE],3 µM
2,O=C1OC2(c3ccc(O)cc3Oc3cc(O)ccc32)c2ccccc21 [FLUORESCEIN],0.907 µM
3,CNCCC=C1c2ccccc2CCc2ccccc21 [NORTRIPTYLINE],3 µM

# Molecular target: Cytochrome P450 2D6 (Homo sapiens, UniProt P10635)
# Sequence (P10635 whole entry): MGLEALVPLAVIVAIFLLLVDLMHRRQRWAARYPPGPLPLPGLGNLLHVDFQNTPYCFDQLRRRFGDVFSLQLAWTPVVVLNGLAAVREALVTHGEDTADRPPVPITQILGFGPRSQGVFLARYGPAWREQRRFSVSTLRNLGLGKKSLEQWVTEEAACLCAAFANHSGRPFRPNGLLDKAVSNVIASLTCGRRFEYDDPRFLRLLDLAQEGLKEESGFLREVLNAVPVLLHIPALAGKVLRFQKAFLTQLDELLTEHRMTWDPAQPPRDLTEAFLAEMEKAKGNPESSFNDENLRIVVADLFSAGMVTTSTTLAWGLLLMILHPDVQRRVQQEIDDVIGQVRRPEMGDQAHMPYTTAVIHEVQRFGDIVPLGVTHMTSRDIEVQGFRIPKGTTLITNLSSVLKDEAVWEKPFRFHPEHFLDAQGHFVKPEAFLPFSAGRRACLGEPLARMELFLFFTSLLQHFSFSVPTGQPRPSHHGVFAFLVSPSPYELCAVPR
# Test: not given
row,Compound,IC50
1,CCc1ccc(C(=O)C(C)CN2CCCCC2)cc1 (centres undefined) [EPERISONE],4.9 µM
2,CNCCC=C1c2ccccc2CCc2ccccc21 [NORTRIPTYLINE],1 µM
3,CNC(=O)Oc1ccc2c(c1)[C@]1(C)CCN(C)[C@@H]1N2C [PHYSOSTIGMINE],0.2 µM
4,COc1ccc(CN(CCN(C)C)c2ccccn2)cc1 [PYRILAMINE],0.3 µM
